Experimental data published in US8192962B2, “Processes for detecting toxic substances” (Daikin Industries, Ltd., priority 2001, dated 2012).

Test system: Mitochondria-located protein genes
Assay: DNA chip mRNA expression in yeast, mitochondria-located protein genes (Table 2)
Format: cell-based, Saccharomyces cerevisiae S288C
Settings: cells incubated two hours with the chemical substance
How it was run: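 Whole-genome yeast DNA chip hybridization (65° C., >12 h) of Cy-labeled cDNA from S288C cells exposed 2 h at 25° C. to a sub-lethal toxicant dose in YPD; value is intensity relative to chemical-free control.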

## CN(C)C(=S)SSC(=S)N(C)C [(10), Tetramethylthiuram disulfide]
Yeast gene YJR121W
  The level of expressed mRNA in the presence of chemical substance/The level of expressed mRNA in the absence of chemical substance: 1.3
Yeast gene YKL003C
  The level of expressed mRNA in the presence of chemical substance/The level of expressed mRNA in the absence of chemical substance: 2.2
Yeast gene YKL016C
  The level of expressed mRNA in the presence of chemical substance/The level of expressed mRNA in the absence of chemical substance: 1.8
Yeast gene YKL141W
  The level of expressed mRNA in the presence of chemical substance/The level of expressed mRNA in the absence of chemical substance: 0.5
Yeast gene YKL142W
  The level of expressed mRNA in the presence of chemical substance/The level of expressed mRNA in the absence of chemical substance: 5.9
Yeast gene YKL148C
  The level of expressed mRNA in the presence of chemical substance/The level of expressed mRNA in the absence of chemical substance: 1.7
Yeast gene YKL170W
  The level of expressed mRNA in the presence of chemical substance/The level of expressed mRNA in the absence of chemical substance: 1.1
Yeast gene YKL194C
  The level of expressed mRNA in the presence of chemical substance/The level of expressed mRNA in the absence of chemical substance: 1.4
Yeast gene YKR066C
  The level of expressed mRNA in the presence of chemical substance/The level of expressed mRNA in the absence of chemical substance: 2.4
Yeast gene YLL041C
  The level of expressed mRNA in the presence of chemical substance/The level of expressed mRNA in the absence of chemical substance: 0.8
Yeast gene YLR038C
  The level of expressed mRNA in the presence of chemical substance/The level of expressed mRNA in the absence of chemical substance: 0.9
Yeast gene YLR259C
  The level of expressed mRNA in the presence of chemical substance/The level of expressed mRNA in the absence of chemical substance: 2.6
Yeast gene YLR295C
  The level of expressed mRNA in the presence of chemical substance/The level of expressed mRNA in the absence of chemical substance: 1.2
Yeast gene YLR304C
  The level of expressed mRNA in the presence of chemical substance/The level of expressed mRNA in the absence of chemical substance: 2.2
Yeast gene YLR348C
  The level of expressed mRNA in the presence of chemical substance/The level of expressed mRNA in the absence of chemical substance: 1.3
Yeast gene YLR395C
  The level of expressed mRNA in the presence of chemical substance/The level of expressed mRNA in the absence of chemical substance: 0.9
Yeast gene YML054C
  The level of expressed mRNA in the presence of chemical substance/The level of expressed mRNA in the absence of chemical substance: 1.8
Yeast gene YML120C
  The level of expressed mRNA in the presence of chemical substance/The level of expressed mRNA in the absence of chemical substance: 1.5
Yeast gene YML129C
  The level of expressed mRNA in the presence of chemical substance/The level of expressed mRNA in the absence of chemical substance: 2.2
Yeast gene YMR023C
  The level of expressed mRNA in the presence of chemical substance/The level of expressed mRNA in the absence of chemical substance: 2.6
Yeast gene YMR035W
  The level of expressed mRNA in the presence of chemical substance/The level of expressed mRNA in the absence of chemical substance: 1.6
Yeast gene YMR083W
  The level of expressed mRNA in the presence of chemical substance/The level of expressed mRNA in the absence of chemical substance: 1.1
Yeast gene YMR089C
  The level of expressed mRNA in the presence of chemical substance/The level of expressed mRNA in the absence of chemical substance: 2.5
Yeast gene YMR152W
  The level of expressed mRNA in the presence of chemical substance/The level of expressed mRNA in the absence of chemical substance: 1.3
Yeast gene YMR203W
  The level of expressed mRNA in the presence of chemical substance/The level of expressed mRNA in the absence of chemical substance: 1.2
Yeast gene YMR267W
  The level of expressed mRNA in the presence of chemical substance/The level of expressed mRNA in the absence of chemical substance: 0.8
Yeast gene YNL055C
  The level of expressed mRNA in the presence of chemical substance/The level of expressed mRNA in the absence of chemical substance: 1.0
Yeast gene YNL071W
  The level of expressed mRNA in the presence of chemical substance/The level of expressed mRNA in the absence of chemical substance: 1.2
Yeast gene YNL073W
  The level of expressed mRNA in the presence of chemical substance/The level of expressed mRNA in the absence of chemical substance: 1.8
Yeast gene YNL104C
  The level of expressed mRNA in the presence of chemical substance/The level of expressed mRNA in the absence of chemical substance: 2.0
Yeast gene YNL256W
  The level of expressed mRNA in the presence of chemical substance/The level of expressed mRNA in the absence of chemical substance: 0.6
Yeast gene YOL096C
  The level of expressed mRNA in the presence of chemical substance/The level of expressed mRNA in the absence of chemical substance: 1.4
Yeast gene YOR020C
  The level of expressed mRNA in the presence of chemical substance/The level of expressed mRNA in the absence of chemical substance: 2.6
Yeast gene YOR037W
  The level of expressed mRNA in the presence of chemical substance/The level of expressed mRNA in the absence of chemical substance: 1.0
Yeast gene YOR100C
  The level of expressed mRNA in the presence of chemical substance/The level of expressed mRNA in the absence of chemical substance: 2.6
Yeast gene YOR130C
  The level of expressed mRNA in the presence of chemical substance/The level of expressed mRNA in the absence of chemical substance: 1.7
Yeast gene YOR142W
  The level of expressed mRNA in the presence of chemical substance/The level of expressed mRNA in the absence of chemical substance: 1.5
Yeast gene YOR150W
  The level of expressed mRNA in the presence of chemical substance/The level of expressed mRNA in the absence of chemical substance: 1.8
Yeast gene YOR176W
  The level of expressed mRNA in the presence of chemical substance/The level of expressed mRNA in the absence of chemical substance: 0.5
Yeast gene YOR187W
  The level of expressed mRNA in the presence of chemical substance/The level of expressed mRNA in the absence of chemical substance: 0.8
Yeast gene YOR316C
  The level of expressed mRNA in the presence of chemical substance/The level of expressed mRNA in the absence of chemical substance: 2.0
Yeast gene YPL040C
  The level of expressed mRNA in the presence of chemical substance/The level of expressed mRNA in the absence of chemical substance: 1.2
Yeast gene YPL134C
  The level of expressed mRNA in the presence of chemical substance/The level of expressed mRNA in the absence of chemical substance: 0.8
Yeast gene YPL135W
  The level of expressed mRNA in the presence of chemical substance/The level of expressed mRNA in the absence of chemical substance: 2.8
Yeast gene YPL215W
  The level of expressed mRNA in the presence of chemical substance/The level of expressed mRNA in the absence of chemical substance: 1.2
Yeast gene YPL262W
  The level of expressed mRNA in the presence of chemical substance/The level of expressed mRNA in the absence of chemical substance: 5.8
Yeast gene YPR024W
  The level of expressed mRNA in the presence of chemical substance/The level of expressed mRNA in the absence of chemical substance: 1.7
Yeast gene YPR037C
  The level of expressed mRNA in the presence of chemical substance/The level of expressed mRNA in the absence of chemical substance: 1.3
Yeast gene YPR047W
  The level of expressed mRNA in the presence of chemical substance/The level of expressed mRNA in the absence of chemical substance: 1.9
Yeast gene YPR134W
  The level of expressed mRNA in the presence of chemical substance/The level of expressed mRNA in the absence of chemical substance: 2.3
